From patent US20210106550A1, “COMPOSITIONS FOR PREVENTING OR TREATING COGNITIVE IMPAIRMENT-RELATED DISEASE COMPRISING MUMEFURAL” (KOREA INSTITUTE OF ORIENTAL MEDICINE, priority 2018, published 2021) come the findings set out here.

Experiment [1] concerns PSD-95 and synaptophysin-1 proteins. The experiment is described as follows: western blot of synaptic markers in hippocampus. The experiment is classed as in vivo, Wistar rats. The note with it: compared with the negative control; FIGS. 11A, 11B. The method, then: Specifically, 12-week-old Wister rats (350 g to 380 g) were used for the experiments. After obtaining the experimental animals, appearance was visually inspected and then normal symptoms were observed during a 7-day acclimation period. Healthy animals were selected therefrom and assigned to groups by a random method according to body weight ranges, and then experiments were performed. During the acclimation and experiment, a constant breeding environment was maintained under the conditions of a temperature of 23±3° C., a relative humidity of 50±10%, a ventilation frequency of 12 times to 16 times per hour, a 12-hour light-dark cycle (light on at 7:00, light off at 19:00), and an intensity of illumination of 150 Lx to 300 Lx. […]
In order to investigate effects of mumefural on normalization of synaptic markers in the dementia-mimic animal model, mumefural was administered in the same manner as in Example 1, and then expression levels of PSD-95 and synaptophysin-1 proteins in the hippocampus were analyzed.
Specifically, the hippocampus was excised from each of the dementia-mimic rats after administration of mumefural was completed, and the proteins were extracted therefrom. Expression levels of the PSD-95 and synaptophysin-1 proteins were analyzed by western blotting. β-Actin was used as a loading control.
(In general: Immunoblotting shows a protein as a band on a membrane.)

For experiment [2], the system named is P2X7R, TLR4, MyD88, NLRP3, caspase1, IL-1β, IL-18, phospho-STAT3, and NF-κB (p65, p50) proteins. The experiment is described as follows: western blot of neurological inflammation proteins in hippocampus. It is filed as in vivo, Wistar rats. On the procedure: (§1) Specifically, 12-week-old Wister rats (350 g to 380 g) were used for the experiments. After obtaining the experimental animals, appearance was visually inspected and then normal symptoms were observed during a 7-day acclimation period. Healthy animals were selected therefrom and assigned to groups by a random method according to body weight ranges, and then experiments were performed. During the acclimation and experiment, a constant breeding environment was maintained under the conditions of a temperature of 23±3° C., a relative humidity of 50±10%, a ventilation frequency of 12 times to 16 times per hour, a 12-hour light-dark cycle (light on at 7:00, light off at 19:00), and an intensity of illumination of 150 Lx to 300 Lx. Experiments were performed using sterilized instruments, and the rats were allowed free access to tap water and a solid feed (PMI nutrition, USA) for 24 hours.
(§2) In order to construct a vascular dementia-mimic animal model, chronic cerebral hypoperfusion was induced by bilateral common carotid artery occlusion (2VO, hereinafter referred to as “brain damage (BCCA0)”) (Wakita et al., 1994). The rats were anesthetized with 4% isoflurane, and the anesthesia was maintained by 1.5% isoflurane during the operation. The central neck was incised to expose the bilateral common carotid artery carefully so as not to cause damage to the vagal nerve. Ligation was performed twice with No. 3 silk, thereby constructing an animal model in which dementia was induced by brain damage.
(§3) After 21 days from the BCCA0 operation, the Wistar rats were orally administered with mumefural for 42 days. The rats were divided into 5 groups listed in Table 1 below, and controls were orally administered with saline. Different concentrations of mumefural were set in the oral administration as low concentration (20 mg/kg), medium concentration (40 mg/kg), and high concentration (80 mg/kg).
In order to investigate effects of mumefural on reduction of neurological inflammation in the dementia-mimic animal model, mumefural was administered in the same manner as in Example 1, and then expression levels of P2X purinoceptor 7 (P2X7R), toll-like receptor 4 (TLR4), myeloid differentiation primary response 88 (MyD88), nucleotide-binding oligomerization domain-like receptor protein 3 (NLRP3), caspase1, interleukin (IL)-1β, IL-18, phospho-signal transducer and activator of transcription 3 (phospho-STAT3), and NF-κB (p65, p50) proteins were measured in the hippocampus. Meanwhile, these proteins provoke inflammation of nerve cells, causing damage to the brain and resulting in diseases such as dementia.
Specifically, the hippocampus was excised from each of the dementia-mimic rats after administration of mumefural was completed, and proteins were extracted therefrom. Expression levels of the proteins were analyzed by western blotting. β-Actin and LaminB1 were used as loading controls.

Experiment [3] deals with BDNF and phospho-CREB proteins. The experiment is described as follows: western blot of memory-related factors in hippocampus. The experiment is classed as in vivo, Wistar rats. The method, then: as §1, §2, §3
In order to investigate effects of mumefural on normalization of damaged hippocampus in the dementia-mimic animal model, mumefural was administered in the same manner as in Example 1, and then expression levels of memory-related factors in the hippocampus were analyzed.
Specifically, the hippocampus was excised from each of the dementia-mimic rats after administration of mumefural was completed, and proteins were extracted therefrom. Expression levels of brain-derived neurotrophic factor (BDNF), phospho-cAMP response element-binding protein (phospho-CREB), and cAMP response element-binding protein (CREB) were analyzed by western blotting. β-Actin was used as a loading control.

In the next experiment the test system is AChE. The experiment is described as follows: enzyme-linked immunosorbent assay of AChE activity in basal forebrain. It is filed as in vivo. As to conditions: compared with the negative control; FIG. 6. The method, then: as §1
(§4) In order to construct a vascular dementia-mimic animal model, chronic cerebral hypoperfusion was induced by bilateral common carotid artery occlusion (2VO, hereinafter referred to as “brain damage (BCCA0)”) (Wakita et al., 1994). The rats were anesthetized with 4% isoflurane, and the anesthesia was maintained by 1.5% isoflurane during the operation. The central neck was incised to expose the bilateral common carotid artery carefully so as not to cause damage to the vagal nerve. […]

In experiment [4] the test system is myelin basic protein (MBP). The experiment is described as follows: immunohistostaining of MBP protein (degraded myelin) in white matter and hippocampus. As to conditions: compared with the negative control, FIGS. 9A, 9B. The experiment is classed as in vivo, Wistar rats. On the procedure:
(§5) Specifically, 12-week-old Wister rats (350 g to 380 g) were used for the experiments. After obtaining the experimental animals, appearance was visually inspected and then normal symptoms were observed during a 7-day acclimation period. Healthy animals were selected therefrom and assigned to groups by a random method according to body weight ranges, and then experiments were performed. […]
In order to investigate the effects on normalization of degraded myelin in the dementia-mimic animal model, mumefural was administered in the same manner as in Example 1 above, and then degradation degrees of oligodendrocytes was analyzed in the hippocampus, fornix, medial septum, corpus callosum, and fimbria hippocampi.
Specifically, the brain was excised from each of the dementia-mimic rats after administration of mumefural was completed and sectioned into slices with a thickness of 40 μm. Subsequently, oligodendrocytes in the hippocampus, white matter fornix, medial septum, corpus callosum, and fimbria hippocampi were detected using myelin basic protein (MBP) that is expressed in the myelin sheath of axons by oligodendrocytes. The slices were stained by immunohistostaining using anti-MBP antibody as a primary antibody and horse anti-mouse antibody as a secondary antibody, and anti-MBP positive cell responses were detected.

Experiment [5] concerns NMDAR2A and NMDAR2B proteins. Briefly: western blot of post-synaptic receptors in hippocampus. It is filed as in vivo, Wistar rats. The note with it: compared with the negative control; FIGS. 12A, 12B. The method, then: as §5
In order to investigate effects of mumefural on normalization of damaged hippocampus in the dementia-mimic animal model, mumefural was administered in the same manner as in Example 1, and then amounts of post-synaptic receptors in the hippocampus were analyzed by examining expression levels of N-methyl-D-aspartate receptor 2A (NMDAR2A) and N-methyl-D-aspartate receptor 2B (NMDAR2B) proteins.
Specifically, the hippocampus was excised from each of the dementia-mimic rats after administration of mumefural was completed, and the proteins were extracted therefrom. Expression levels of the NMDAR2A and NMDAR2B proteins were analyzed by western blotting. β-Actin was used as a loading control.

The subject of a further experiment is IL-1β and IL-18. Briefly: enzyme immunoassay of inflammatory cytokines in hippocampus tissue. The experiment is classed as in vivo, Wistar rats. As to conditions: compared with the negative control, FIG. 20. On the procedure: as §1, §4
Where [6] appears, read: western blot, compared to the negative control, FIGS. 17A, 17B.
Setting [7] is: 20 mg/kg, 40 mg/kg, and 80 mg/kg oral, relative to normal control.
Where [8] appears, read: compared with the negative control, FIGS. 14A, 14B.

With `O=Cc1ccc(COC(=O)CC(O)(CC(=O)O)C(=O)O)o1` (stereo not shown) [mumefural], in experiment [1], the “expression level of PSD-95 protein in hippocampus” value was “increased” and the “expression level of synaptophysin-1 protein in hippocampus” value is on record as “increased”. Moreover, the “neurological inflammation protein expression, effect vs normal control” value in experiment [2] (20 mg/kg, 40 mg/kg, and 80 mg/kg oral) is “effects similar to or superior to those of the normal control”. Further, in experiment [2] (setting [6]), the “expression level of IL-1β protein in hippocampus” value was “decreased”, the “expression level of IL-18 protein in hippocampus” value was “decreased”, the “expression level of MyD88 protein in hippocampus” value is reported as “decreased” and the “expression level of NLRP3 protein in hippocampus” value is listed as “decreased”. In experiment [2] (setting [6]), the “expression level of P2X7R protein in hippocampus” value was “decreased”, the “expression level of TLR4 protein in hippocampus” value is given as “decreased” and the “expression level of caspase1 protein in hippocampus” value is “decreased”. In experiment [2] (western blot, compared to the negative control, FIGS. 18A, 18B), the “expression level of phospho-STAT3 protein in hippocampus” value is “decreased”. In experiment [2] (western blot, compared to the negative control, FIGS. 19A, 19B), the “expression level of NF-κB (p65, p50) proteins in hippocampus” value is on record as “decreased”. Moreover, in experiment [3] (setting [7]), the “expression level of BDNF protein vs normal control” value is reported as “higher expression levels than that of the normal control by about three times or more” and the “expression level of phospho-CREB protein vs normal control” value is “higher expression levels than that of the normal control by about three times or more”. Moreover, in experiment [3] (setting [8]), the “expression level of BDNF protein in hippocampus” value was “significantly increased” and the “expression level of phospho-CREB protein in hippocampus” value is reported as “significantly increased”. Further, the “activity of AChE in the basal forebrain” value in the experiment on AChE is “reduced”. The “myelin degradation (MBP immunohistostaining)” value in experiment [4] is listed as “decreased”. For the same compound, in experiment [5], the “expression level of NMDAR2A protein in hippocampus” value was “significantly increased” and the “expression level of NMDAR2B protein in hippocampus” value is reported as “significantly increased”. In the experiment on IL-1β and IL-18, the “level of IL-1β in hippocampus tissue” value is recorded as “significantly decreased” and the “level of IL-18 in hippocampus tissue” value is recorded as “significantly decreased”.
